Experimental data as given in article PMC7481357, “N-terminal Myristoylation Enhanced the Antimicrobial Activity of Antimicrobial Peptide PMAP-36PW” (Frontiers in Cellular and Infection Microbiology, 2020).
“Also recorded” adds a separate entry of the source.

Assays:
S. aureus ATCC 25923 = format: cell-based, Staphylococcus aureus; conditions: S. aureus ATCC 25923; * indicates resistant (CLSI, 2020)
Protocol: (§1) The MICs of Myr-36PW in vitro were measured through microdilution in accordance with the Clinical and Laboratory Standards Institute (CLSI, [2020]). The bacterial cells were cultured for 12 h at 37°C in the appropriate medium and then diluted to 1 × 10^6 CFU/mL. Equal volumes (100 μL) of bacterial cell suspension and two-fold serially diluted different concentrations peptides (0.0039–256 μg/mL) were added to each well of the sterile 96-well plate. The samples were incubated for 18 h at 37°C. After incubation, the MICs of the peptides were determined by evaluating the growth based on the OD600 of the cultures.

S. typhimurium SL 1344 = format: cell-based, Salmonella typhimurium; conditions: S. typhimurium SL 1344; * indicates resistant (CLSI, 2020)
Protocol: as §1

P. aeruginosa GIM 1.551 [1] = format: cell-based, Pseudomonas aeruginosa; conditions: P. aeruginosa GIM 1.551; * indicates resistant (CLSI, 2020)
Protocol: as §1

[2] = system: L. monocytogenes CICC 21634; format: cell-based, Listeria monocytogenes; conditions: L. monocytogenes CICC 21634; * indicates resistant (CLSI, 2020)
Protocol: as §1

P. aeruginosa GIM 1.551 [3] = test: Wound infection model; format: in vivo, BALB/c mice; conditions: 20 μL, 1 μg/μL, once a day for 7 days
Protocol: Sixty mice with ten mice in each group were used in the experiment. Infection and treatment were performed as previously described (Hong et al., [2017]). The mouse dorsal region with a diameter of 3.0 cm was treated with hair pusher, and a full-thickness 2.0 cm diameter wound was created by excising the skin and infected by direct seeding with P. aeruginosa GIM 1.551 (1 × 10^8 CFU/mL, 50 μL). The wound was then covered with sterile gauze to prevent cross contamination. Treatment was initiated at 24 h after bacterial inoculation. The mice with no infection and treatment was used as a blank control, those provided with PBS (20 μL) as the negative control group, those administered with ampicillin sodium (20 μL, 1 μg/μL) as the positive control group, and the remaining were those treated with the three peptides (20 μL, 1 μg/μL) once a day for 7 days as the treatment groups. The mice were sacrificed after the 7 day treatment. Changes in the wound were observed, and the infected sections of skin were aseptically contained, homogenized, and serially diluted. Bacterial CFU counts were obtained.
Figure 11 Treatment value of wound by Myr-36PW in vivo. A 2 cm wound was cut with a knife and directly injected with P. aeruginosa GIM 1.551. (A) Wound changes of mice after 7 days treatment. (B) Bacterial CFU in the wound area treated for 7 days under different experimental conditions. AS is ampicillin sodium. Data represent the mean Log (CFU) ± SD of five individual experiments. *P < 0.05 and **P < 0.01, compared with PBS. ^#P < 0.05, compared with PMAP-36PW.

P. aeruginosa GIM 1.551 [4] = test: Subcutaneous abscess model; format: in vivo, BALB/c mice; conditions: injected 20 μL, 1 μg/μL, once a day for 3 days
Protocol: A subcutaneous abscess model in vivo was established as previously reported (Zhao et al., [2019]). The mouse dorsal region with 3.0 cm diameter was treated with hair pusher. A total of 120 mice were randomly divided into two experimental models, one was challenged with S. aureus ATCC 25923 (2.5 × 10^8 CFU/mL, 60 μL), and the other was challenged with P. aeruginosa GIM 1.551 (3.0 × 10^8 CFU/mL, 60 μL). In the S. aureus ATCC 25923 model, 60 mice were divided into six groups of 10 members. The mice with no infection and treatment was used as a blank control, those directly injected with PBS (20 μL) as the negative control group, those injected with benzylpenicillin potassium (20 μL, 1 μg/μL) as the positive control group, and the remaining three groups as the treatment groups injected with Myr-36PW (20 μL, 1 μg/μL), PMAP-36PW (20 μL, 1 μg/μL), and PMAP-36 (20 μL, 1 μg/μL). The procedure in P. aeruginosa GIM 1.551 model is the same as that in S. aureus ATCC 25923 model, except for the use of ampicillin sodium as a positive control. Treatment once a day for 3 days was initiated when the mice developed prominent pustules on their backs. A day after the treatment, the size of the abscess was observed, and its tissues were excised, homogenized, and serially diluted. Bacteria CFU counts were calculated.
Figure 10 Treatment efficacy of subcutaneous abscess by Myr-36PW in vivo. Mice were injected with S. aureus ATCC 25923 or P. aeruginosa GIM 1.551 to develop a subcutaneous abscess before treatment. (A) Changes in the abscess area of mice after 3 days treatment. (B,C) Quantitative analysis of bacterial CFU in abscess area that received 3 days treatment under various experimental conditions. The number of CFU in each treatment group was normalized by using the CFU of the experimental group divided by the CFU of the PBS group (100%). BP is benzylpenicillin potassium, AS is ampicillin sodium. Data represent the mean ± SD of five individual experiments. *P < 0.05 and **P < 0.01, compared with PBS. ^#P < 0.05 and ^##P < 0.01, compared with PMAP-36PW.

P. aeruginosa GIM 1.551 [5] = test: Pneumonia (lung infection) model; format: in vivo, BALB/c mice; conditions: intranasal 40 μL, 1 μg/μL, once a day for 3 days
Protocol: A pneumonia model in vivo was established as previously reported, with minor modification (Cortés et al., [2002]; Aoki et al., [2009]; Shi et al., [2018]). A total of 120 mice were randomly divided into two experimental models, one was intranasal inoculation of S. aureus ATCC 25923 (8.3 × 10^9 CFU/mL, 50 μL), and the other was intranasal inoculation of P. aeruginosa GIM 1.551 (4.5 × 10^10 CFU/mL, 50 μL). In the S. aureus ATCC 25923 model, 60 mice were divided into the following six groups of 10 mice each: no infection and treatment was used as a blank control, those with intranasal administration of PBS (40 μL) as the negative control group, those administered with benzylpenicillin potassium (40 μL, 1 μg/μL) as the positive control group, and the remaining three corresponded to Myr-36PW (40 μL, 1 μg/μL), PMAP-36PW (40 μL, 1 μg/μL), and PMAP-36 groups (40 μL, 1 μg/μL). The procedure for P. aeruginosa GIM 1.551 model is the same as for S. aureus ATCC 25923 model, except for the use of ampicillin sodium as the positive control. After 4 h post-inoculation, treatment was initiated, once a day for 3 days. The mice were sacrificed 24 h after the treatment. Changes in the appearance of lung tissues were observed, and lung tissues were removed aseptically from the mice. Half of the removed lung tissues were gently fixed in buffered formaldehyde solution for histopathological assessment by hematoxylin and eosin (H&E) staining. Pathological changes were scored to provide individual therapeutic status as described previously (Lei et al., [2018]). The remaining lung tissues were added with 1 mL of PBS, homogenized, and serially diluted. Bacterial CFU counts were determined.
Figure 8 Therapeutic effect for pneumonia by Myr-36PW in vivo. Mice were injected with S. aureus ATCC 25923 or P. aeruginosa GIM 1.551 to form pneumonia, and lungs (n = 5) in each group were collected on day 4 after intranasal bacterial inoculation. (A) Morphological changes of lung tissues. (B) Representative histopathological images of processed lung section with hematoxylin and eosin (H&E) staining. Images are presented at a magnification of 20×. a: inflammatory cell infiltration. b: the alveolar wall is thickened. c: alveolar wall congestion or alveolar hemorrhage. (C,D) Pathological scores of the lung sections. Scoring standard: 1 indicated no pathology, 2 indicated local pulmonary congestion and inflammatory cell infiltration, 3 indicated pulmonary congestion and a large number of inflammatory cell infiltration, affecting <20% of the section, 4 indicated pulmonary congestion and a large number of inflammatory cell infiltration, affecting 20–50% of the section, and 5 indicated pulmonary congestion and a large number of inflammatory cell infiltration, affecting >50% of the section. (E,F) Bacterial CFU in lung homogenate. BP is benzylpenicillin potassium, AS is ampicillin sodium. Data represent the mean ± SD of five individual experiments.

MICs of different classes of antibiotics (S. aureus ATCC 25923) | MICs of different classes of antibiotics (S. typhimurium SL 1344) | MICs of different classes of antibiotics (P. aeruginosa GIM 1.551 [1]) | MICs of different classes of antibiotics [2] | SMILES | Wound size (P. aeruginosa GIM 1.551 [3]) | Bacterial CFU in the wound area (P. aeruginosa GIM 1.551 [3]; vs PBS group: PMAP-36PW P < 0.05, Myr-36PW and ampicillin sodium P < 0.01, n = 5) | Abscess area (P. aeruginosa GIM 1.551 [4]) | Bacterial CFU in abscess area (P. aeruginosa GIM 1.551 [4]; vs PMAP-36PW: Myr-36PW P < 0.05, ampicillin sodium P < 0.01, n = 5) | Lung histopathology (H&E) (P. aeruginosa GIM 1.551 [5]) | Bacterial CFU in lung homogenate (P. aeruginosa GIM 1.551 [5]; n = 5) | Pathological scores of the lung sections (P. aeruginosa GIM 1.551 [5]; n = 5)
4 µg/mL | 32 µg/mL | >128* μg/mL | 128* μg/mL | NCC[C@H](O)C(=O)N[C@@H]1C[C@H](N)[C@@H](O[C@H]2O[C@H](CN)[C@@H](O)[C@H](O)[C@H]2O)[C@H](O)[C@H]1O[C@H]1O[C@H](CO)[C@@H](O)[C@H](N)[C@H]1O [Amikacin] | – | – | – | – | – | – | –
0.5 µg/mL | 16 µg/mL | 32 µg/mL | 64 µg/mL | CC1(C)S[C@@H]2[C@H](NC(=O)[C@H](N)c3ccccc3)C(=O)N2[C@H]1C(=O)O [Ampicillin sodium] | significantly reduced | significantly reduced | significantly reduced the abscess area and effectively suppressed its growth | significant difference compared with that of PBS group (P < 0.01); also recorded: lower than that of PMAP-36PW group | a complete alveolar structure, reduced blood stasis, and large reduction in inflammatory cells | decreased the P. aeruginosa GIM 1.551 CFU level compared with the PMAP-36PW group (P < 0.05) | lower scores than PMAP-36PW group (P < 0.05)
64* μg/mL | >128* μg/mL | 128* μg/mL | 64* μg/mL | CC[C@H]1OC(=O)[C@H](C)[C@@H](O[C@H]2C[C@@](C)(OC)[C@@H](O)[C@H](C)O2)[C@H](C)[C@@H](O[C@@H]2O[C@H](C)C[C@H](N(C)C)[C@H]2O)[C@](C)(O)C[C@@H](C)CN(C)[C@H](C)[C@@H](O)[C@]1(C)O [Azithromycin] | – | – | – | – | – | – | –
4 µg/mL | 8 µg/mL | 128* μg/mL | 32* μg/mL | CNC(C)C1CCC(N)C(OC2C(N)CC(N)C(OC3OCC(C)(O)C(NC)C3O)C2O)O1 (centres unmarked) [Gentamicin] | – | – | – | – | – | – | –
